Inhibition data for two compounds are collected here from patent US20170190705A1, “Compositions and Methods for Inhibiting BMP” (THE BRIGHAM AND WOMAN'S HOSPITAL, INC., priority 2014, published 2017).

Common to all, as to format: biochemical
One assay concerns the target T1, AURORA-A (Homo sapiens, UniProt O14965).
T1 sequence (O14965 1-403): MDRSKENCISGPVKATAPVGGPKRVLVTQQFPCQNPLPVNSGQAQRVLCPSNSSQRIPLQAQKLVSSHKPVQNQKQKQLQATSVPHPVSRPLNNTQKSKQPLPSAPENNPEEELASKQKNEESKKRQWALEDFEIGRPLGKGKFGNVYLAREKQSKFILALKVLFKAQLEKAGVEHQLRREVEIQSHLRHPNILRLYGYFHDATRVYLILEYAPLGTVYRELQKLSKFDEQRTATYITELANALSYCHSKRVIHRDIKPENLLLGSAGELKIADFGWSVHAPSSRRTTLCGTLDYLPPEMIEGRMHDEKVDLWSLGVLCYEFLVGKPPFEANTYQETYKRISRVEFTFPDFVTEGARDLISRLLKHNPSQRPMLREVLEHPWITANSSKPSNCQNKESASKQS
In words: Kinome profiling AURORA-A. As to conditions: read-out: Inhibitory activity AURORA-A; for inhibition at 0.1 µM: 100 nM. As for the experimental part:
(§1) . The kinome-wide selectivity was determined following the methods previously reported by Mohedas et al., ACS Chem Biol 2013, 8, 1291-1302 and Sanvitale et al., PLoS One 2013, 8, e62721.

For the next assay, the target named is DYRK1B (Homo sapiens, UniProt Q9Y463). In words: Kinome profiling DYRK1B. The following applies: read-out: Inhibitory activity DYRK1B; for inhibition at 0.1 µM: 100 nM. As to the method: as §1
Chain of DYRK1B (Q9Y463 whole entry): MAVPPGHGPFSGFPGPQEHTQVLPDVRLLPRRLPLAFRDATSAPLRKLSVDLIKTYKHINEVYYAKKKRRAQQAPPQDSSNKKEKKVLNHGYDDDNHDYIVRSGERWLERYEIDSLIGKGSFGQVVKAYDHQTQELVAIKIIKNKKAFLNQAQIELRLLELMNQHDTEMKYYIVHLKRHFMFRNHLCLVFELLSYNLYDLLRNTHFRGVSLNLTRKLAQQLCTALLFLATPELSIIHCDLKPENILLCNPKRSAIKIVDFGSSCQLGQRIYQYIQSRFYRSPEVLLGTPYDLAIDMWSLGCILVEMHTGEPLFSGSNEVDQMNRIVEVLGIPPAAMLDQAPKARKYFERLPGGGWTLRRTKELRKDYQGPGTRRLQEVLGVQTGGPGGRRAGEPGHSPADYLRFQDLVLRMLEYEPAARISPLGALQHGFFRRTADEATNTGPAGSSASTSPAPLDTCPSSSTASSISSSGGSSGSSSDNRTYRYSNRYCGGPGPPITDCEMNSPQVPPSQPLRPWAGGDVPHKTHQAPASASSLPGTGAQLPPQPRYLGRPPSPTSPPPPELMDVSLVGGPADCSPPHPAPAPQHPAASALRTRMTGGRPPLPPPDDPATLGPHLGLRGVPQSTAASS
For another assay, the target named is MARK1 (Homo sapiens, UniProt Q9P0L2). In words: Kinome profiling MARK1. As to conditions: read-out: Inhibitory activity MARK1; for inhibition at 0.1 µM: 100 nM. As for the experimental part: as §1
Chain of MARK1 (Q9P0L2 whole entry): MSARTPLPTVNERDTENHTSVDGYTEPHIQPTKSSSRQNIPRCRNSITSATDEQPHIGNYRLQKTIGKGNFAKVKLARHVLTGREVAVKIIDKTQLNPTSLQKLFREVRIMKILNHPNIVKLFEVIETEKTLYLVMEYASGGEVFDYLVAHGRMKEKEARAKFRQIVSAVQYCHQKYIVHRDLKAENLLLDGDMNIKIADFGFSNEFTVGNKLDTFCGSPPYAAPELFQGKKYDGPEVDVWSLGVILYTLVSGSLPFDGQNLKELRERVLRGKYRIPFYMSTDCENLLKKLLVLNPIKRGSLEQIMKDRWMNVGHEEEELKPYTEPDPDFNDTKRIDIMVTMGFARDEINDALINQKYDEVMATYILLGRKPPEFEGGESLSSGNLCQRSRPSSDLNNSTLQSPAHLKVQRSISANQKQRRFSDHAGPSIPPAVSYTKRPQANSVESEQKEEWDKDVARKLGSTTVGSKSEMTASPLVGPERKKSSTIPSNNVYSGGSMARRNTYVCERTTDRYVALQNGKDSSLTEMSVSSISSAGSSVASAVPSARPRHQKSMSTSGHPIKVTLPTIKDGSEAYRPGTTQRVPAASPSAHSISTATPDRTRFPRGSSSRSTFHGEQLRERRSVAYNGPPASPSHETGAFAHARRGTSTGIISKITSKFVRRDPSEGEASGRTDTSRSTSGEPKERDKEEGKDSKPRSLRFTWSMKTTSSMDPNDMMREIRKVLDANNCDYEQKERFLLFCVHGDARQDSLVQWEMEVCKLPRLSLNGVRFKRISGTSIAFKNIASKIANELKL
Another assay addresses FER (Homo sapiens, UniProt P16591). Kind of assay: Kinome profiling FER. As to conditions: read-out: Inhibitory activity FER; for inhibition at 0.1 µM: 100 nM. As to the method: as §1
The next assay deals with T2, PDK1 (Homo sapiens, UniProt O15530).
T2 sequence (O15530 1-556): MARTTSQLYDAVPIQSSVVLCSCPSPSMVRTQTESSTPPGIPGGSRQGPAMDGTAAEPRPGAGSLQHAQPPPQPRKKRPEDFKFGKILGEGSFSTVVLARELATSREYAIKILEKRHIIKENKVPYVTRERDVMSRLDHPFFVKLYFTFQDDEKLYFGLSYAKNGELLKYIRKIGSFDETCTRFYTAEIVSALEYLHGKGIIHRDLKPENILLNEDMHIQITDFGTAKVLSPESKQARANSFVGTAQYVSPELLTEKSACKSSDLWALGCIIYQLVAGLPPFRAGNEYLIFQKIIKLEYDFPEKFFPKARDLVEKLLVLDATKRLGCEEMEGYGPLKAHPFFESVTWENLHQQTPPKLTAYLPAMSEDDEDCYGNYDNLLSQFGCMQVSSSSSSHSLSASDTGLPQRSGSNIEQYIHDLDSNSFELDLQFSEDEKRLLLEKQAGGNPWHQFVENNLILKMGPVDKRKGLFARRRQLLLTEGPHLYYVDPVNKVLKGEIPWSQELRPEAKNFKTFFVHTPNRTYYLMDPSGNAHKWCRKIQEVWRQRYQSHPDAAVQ
Kind of assay: Kinome profiling PDK1. As to conditions: read-out: Inhibitory activity PDK1; for inhibition at 0.1 µM: 100 nM. As to the method:
as §1

The target of another assay is T3, JAK3 (Homo sapiens, UniProt P52333).
T3 sequence (P52333 1-1124): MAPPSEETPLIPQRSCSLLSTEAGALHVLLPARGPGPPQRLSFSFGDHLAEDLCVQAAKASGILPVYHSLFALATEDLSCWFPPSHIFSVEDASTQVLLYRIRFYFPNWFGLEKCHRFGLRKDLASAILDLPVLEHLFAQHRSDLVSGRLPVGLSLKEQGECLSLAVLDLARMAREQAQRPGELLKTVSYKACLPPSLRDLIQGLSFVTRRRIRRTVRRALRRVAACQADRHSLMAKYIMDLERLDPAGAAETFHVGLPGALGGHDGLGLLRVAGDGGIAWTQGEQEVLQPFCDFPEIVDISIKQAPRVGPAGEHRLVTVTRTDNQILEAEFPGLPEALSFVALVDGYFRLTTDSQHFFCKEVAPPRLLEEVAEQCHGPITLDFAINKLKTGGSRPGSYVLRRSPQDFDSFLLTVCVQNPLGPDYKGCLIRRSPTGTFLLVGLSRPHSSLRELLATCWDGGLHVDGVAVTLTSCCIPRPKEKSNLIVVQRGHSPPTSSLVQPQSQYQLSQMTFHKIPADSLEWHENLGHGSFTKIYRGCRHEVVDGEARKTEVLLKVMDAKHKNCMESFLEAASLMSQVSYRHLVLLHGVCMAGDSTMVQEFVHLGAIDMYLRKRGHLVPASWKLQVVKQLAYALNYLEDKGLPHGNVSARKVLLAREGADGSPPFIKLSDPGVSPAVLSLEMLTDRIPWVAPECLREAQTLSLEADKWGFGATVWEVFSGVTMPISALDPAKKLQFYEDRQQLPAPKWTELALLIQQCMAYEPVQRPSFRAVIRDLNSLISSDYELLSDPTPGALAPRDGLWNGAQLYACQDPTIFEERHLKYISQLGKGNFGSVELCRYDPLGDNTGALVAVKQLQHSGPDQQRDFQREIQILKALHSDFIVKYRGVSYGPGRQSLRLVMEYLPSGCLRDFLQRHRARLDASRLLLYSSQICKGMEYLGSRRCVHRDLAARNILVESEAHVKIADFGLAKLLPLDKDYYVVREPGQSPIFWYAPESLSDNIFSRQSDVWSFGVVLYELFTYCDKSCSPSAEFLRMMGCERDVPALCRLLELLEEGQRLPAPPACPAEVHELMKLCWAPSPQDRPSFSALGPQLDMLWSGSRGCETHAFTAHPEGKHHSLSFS
In words: Kinome profiling JAK3. As to conditions: read-out: Inhibitory activity JAK3; for inhibition at 0.1 µM: 100 nM. As to the method:
as §1

Chain of FER (P16591 whole entry): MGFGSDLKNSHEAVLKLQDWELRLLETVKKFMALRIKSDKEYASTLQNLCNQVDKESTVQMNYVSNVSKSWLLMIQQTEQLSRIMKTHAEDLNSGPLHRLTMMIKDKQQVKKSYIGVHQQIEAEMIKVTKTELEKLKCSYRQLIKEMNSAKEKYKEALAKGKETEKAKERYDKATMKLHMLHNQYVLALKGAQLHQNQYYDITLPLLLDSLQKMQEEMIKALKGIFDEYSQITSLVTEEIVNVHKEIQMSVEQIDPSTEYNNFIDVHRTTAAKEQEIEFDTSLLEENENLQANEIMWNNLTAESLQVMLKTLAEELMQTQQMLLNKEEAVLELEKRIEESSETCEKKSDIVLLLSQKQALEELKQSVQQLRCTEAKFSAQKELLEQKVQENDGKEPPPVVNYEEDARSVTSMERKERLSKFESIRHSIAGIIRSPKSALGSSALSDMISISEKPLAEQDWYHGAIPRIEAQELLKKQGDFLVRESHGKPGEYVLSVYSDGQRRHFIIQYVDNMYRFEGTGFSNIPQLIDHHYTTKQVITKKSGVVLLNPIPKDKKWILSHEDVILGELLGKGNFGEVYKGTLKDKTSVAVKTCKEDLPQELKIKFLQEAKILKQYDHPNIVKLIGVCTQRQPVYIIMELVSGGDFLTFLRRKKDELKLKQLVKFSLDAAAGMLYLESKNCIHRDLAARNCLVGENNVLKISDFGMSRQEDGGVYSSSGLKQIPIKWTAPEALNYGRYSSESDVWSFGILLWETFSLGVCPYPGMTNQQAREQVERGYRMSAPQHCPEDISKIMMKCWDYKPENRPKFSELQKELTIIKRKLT

Consider `COc1cc(-c2cc(-c3ccc(N4CCNCC4)cc3)cnc2N)cc(OC)c1OC` [Compound 15, 5-(4-(piperazin-1-yl)phenyl)-3-(3,4,5-trimethoxyphenyl)pyridin-2-amine], for which the inhibition at 0.1 µM is 2% on AURORA-A; -1% on DYRK1B; 3% at MARK1; 0% on FER; 3% on PDK1; 0% on JAK3. In addition, the inhibition at 1 µM was found to be 3% at AURORA-A; 4% on DYRK1B; 31% at MARK1; 6% on FER; 3% on PDK1; 3% on JAK3.
As for `COc1cc(-c2cc(-c3ccc(N4CCNCC4)cc3)cnc2C)cc(OC)c1OC` [Compound 10, 1-(4-(6-methyl-5-(3,4,5-trimethoxyphenyl)pyridin-3-yl)phenyl)piperazine], the inhibition at 0.1 µM is 2% at AURORA-A; 2% at DYRK1B; 0% at MARK1; 3% on FER; 3% on PDK1; 3% on JAK3. For the same compound, the inhibition at 1 µM on AURORA-A amounted to 3%; at DYRK1B, 5%; on MARK1, 2%; on FER, 3%; at PDK1, 6%; on JAK3, 3%.
